Laboratory results from ChEMBL document CHEMBL1148423, “Estrogen receptor ligands. Part 5: The SAR of dihydrobenzoxathiins containing modified basic side chains” (Bioorg Med Chem Lett, 2004).

How the values were obtained:
MCF7 = test: Inhibition of MCF-7 cancer cell proliferation; type: functional, cell-based; conditions: Homo sapiens
Estrogen receptor = target: T1, Estrogen receptor (Homo sapiens, UniProt P03372)
T1 sequence (P03372 whole entry): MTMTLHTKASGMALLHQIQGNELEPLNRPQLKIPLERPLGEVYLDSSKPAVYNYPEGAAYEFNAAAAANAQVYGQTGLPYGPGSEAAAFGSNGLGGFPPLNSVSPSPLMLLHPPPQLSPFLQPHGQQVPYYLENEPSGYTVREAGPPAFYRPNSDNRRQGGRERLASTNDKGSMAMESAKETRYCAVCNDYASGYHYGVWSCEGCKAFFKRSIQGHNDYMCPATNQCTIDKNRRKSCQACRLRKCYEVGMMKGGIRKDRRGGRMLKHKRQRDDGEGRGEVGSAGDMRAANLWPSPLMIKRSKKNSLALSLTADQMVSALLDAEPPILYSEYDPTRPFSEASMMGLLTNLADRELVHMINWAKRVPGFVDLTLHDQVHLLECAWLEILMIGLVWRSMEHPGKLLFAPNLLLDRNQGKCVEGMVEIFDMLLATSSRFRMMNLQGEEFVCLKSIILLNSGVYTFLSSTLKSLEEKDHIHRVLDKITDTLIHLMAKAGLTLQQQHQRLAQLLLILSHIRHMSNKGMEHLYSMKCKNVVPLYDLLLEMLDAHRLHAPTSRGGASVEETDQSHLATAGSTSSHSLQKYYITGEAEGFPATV
Description: Binding affinity for human estrogen receptor alpha

Estrogen receptor beta = Estrogen receptor beta (Homo sapiens, UniProt Q92731)
Sequence of Estrogen receptor beta (Q92731 whole entry): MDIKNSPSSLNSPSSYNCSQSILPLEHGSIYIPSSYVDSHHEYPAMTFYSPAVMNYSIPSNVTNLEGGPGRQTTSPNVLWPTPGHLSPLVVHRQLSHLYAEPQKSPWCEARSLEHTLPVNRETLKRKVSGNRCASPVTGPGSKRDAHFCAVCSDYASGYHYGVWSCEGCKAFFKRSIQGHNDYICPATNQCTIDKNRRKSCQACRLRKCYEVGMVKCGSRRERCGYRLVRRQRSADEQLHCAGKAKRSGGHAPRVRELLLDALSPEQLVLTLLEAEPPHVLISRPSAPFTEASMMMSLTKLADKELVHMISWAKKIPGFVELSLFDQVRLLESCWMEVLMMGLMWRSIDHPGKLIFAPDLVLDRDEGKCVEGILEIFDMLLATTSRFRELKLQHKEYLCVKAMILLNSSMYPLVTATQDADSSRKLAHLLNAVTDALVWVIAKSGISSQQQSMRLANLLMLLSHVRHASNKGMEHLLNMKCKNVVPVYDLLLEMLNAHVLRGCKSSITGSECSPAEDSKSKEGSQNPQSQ
Description: Binding affinity for human estrogen receptor beta

Compound | IC50 (MCF7) [nM] | IC50 (Estrogen receptor) [nM] | IC50 (Estrogen receptor beta) [nM]
CCN1CCN(c2ccc([C@@H]3Oc4ccc(O)cc4S[C@@H]3c3ccc(O)cc3)cc2)CC1 | 1.4 | 1 | 27
Oc1ccc([C@H]2Sc3cc(O)ccc3O[C@H]2CCCN2CCCCC2)cc1 | 1.2 | 0.7 | 27
CN1CCN(c2ccc([C@@H]3Oc4ccc(O)cc4S[C@@H]3c3ccc(O)cc3)cc2)CC1 | 3.4 | 1 | 59
Oc1ccc([C@H]2Sc3cc(O)ccc3O[C@H]2c2ccc(CCCN3CCCCC3)cc2)cc1 | 6.7 | 1.4 | 186
Oc1ccc([C@H]2Sc3cc(O)ccc3O[C@H]2c2ccc(COCCN3CCCCC3)cc2)cc1 | 14.6 | 2.3 | 259
CN1CCCN(c2ccc([C@@H]3Oc4ccc(O)cc4S[C@@H]3c3ccc(O)cc3)cc2)CC1 | 29 | 3.6 | 365
Oc1ccc([C@H]2Sc3cc(O)ccc3O[C@H]2c2ccc(C3CCNCC3)cc2)cc1 | 1.9 | 1.7 | 115
Oc1ccc([C@H]2Sc3cc(O)ccc3O[C@H]2c2ccc(C3=CCNCC3)cc2)cc1 | 0.9 | 1.4 | 31
Oc1ccc([C@H]2Sc3cc(O)ccc3O[C@H]2c2ccc(CN3CCCCC3)cc2)cc1 |  | 155 | 4370
Oc1ccc([C@H]2Sc3cc(O)ccc3O[C@H]2c2ccc(N3CCNCC3)cc2)cc1 | 2.8 | 4.4 | 186
Oc1ccc([C@H]2Sc3cc(O)ccc3O[C@H]2c2ccc(N3CCCNCC3)cc2)cc1 | 28 | 3.6 | 161
